{
  "source": "patent US7041851B2",
  "about": "“Fluorinated phenyl thiophenyl derivatives and their use for imaging serotonin transporters” (The Trustees of the University of Pennsylvania, priority 2002, dated 2006)",
  "key": {"[1]": {"experiment": "Organ distribution and brain regional uptake of [18F]ACF in rats"}, "[2]": {"biological_target": "T1, SERT (Rattus norvegicus, UniProt P31652)", "T1 construct": "from tissue; host or cells: rat brain in vivo (hypothalamus, striatum, hippocampus, cerebellum)", "T1 sequence (P31652 whole entry)": "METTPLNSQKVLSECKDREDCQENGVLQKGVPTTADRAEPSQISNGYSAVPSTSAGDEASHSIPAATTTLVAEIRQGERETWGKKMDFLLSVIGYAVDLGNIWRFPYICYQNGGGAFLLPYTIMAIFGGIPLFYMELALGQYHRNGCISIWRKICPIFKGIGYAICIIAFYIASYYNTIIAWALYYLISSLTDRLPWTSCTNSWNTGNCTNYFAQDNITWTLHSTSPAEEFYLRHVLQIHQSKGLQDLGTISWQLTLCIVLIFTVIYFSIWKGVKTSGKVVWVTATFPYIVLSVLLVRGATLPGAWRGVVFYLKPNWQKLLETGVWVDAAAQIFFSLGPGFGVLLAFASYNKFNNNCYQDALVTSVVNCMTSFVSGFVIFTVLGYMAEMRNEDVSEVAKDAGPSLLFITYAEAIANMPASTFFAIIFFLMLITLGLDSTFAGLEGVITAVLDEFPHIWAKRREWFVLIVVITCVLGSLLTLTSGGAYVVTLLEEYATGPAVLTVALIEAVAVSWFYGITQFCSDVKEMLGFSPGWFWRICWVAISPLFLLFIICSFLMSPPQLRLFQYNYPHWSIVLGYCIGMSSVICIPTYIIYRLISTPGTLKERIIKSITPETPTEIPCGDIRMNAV", "experiment": "Pretreatment with monoamine reuptake inhibitors, specific binding of [18F]ACF in rat brain regions", "type": "in vivo, rats", "set-up": "Tracer uptake: Cortex / Tracer uptake: Remainder / Tracer uptake: Hypothalamus / Tracer uptake: Whole brain / Tracer uptake: Blood / Tracer uptake: Cerebellum / Tracer uptake: Striatum / Tracer uptake: Hippocampus: unit not given here", "conditions": "for Ratio to Cerebellum: Cerebellum / Ratio to Cerebellum: Cortex / Ratio to Cerebellum: Hippocampus / Ratio to Cerebellum: Hypothalamus / Ratio to Cerebellum: Remainder / Ratio to Cerebellum: Striatum / Tracer uptake: Blood / Tracer uptake: Cerebellum / Tracer uptake: Cortex / Tracer uptake: Hippocampus / Tracer uptake: Hypothalamus / Tracer uptake: Remainder / Tracer uptake: Striatum / Tracer uptake: Whole brain: 1 h after tracer"}, "[3]": {"conditions": "rats, Control (saline-pretreated)"}, "[4]": {"conditions": "rats, pretreated (+)McN5652 2 mg/kg iv 5 min prior"}, "[5]": {"conditions": "rats, pretreated Methylphenidate 2 mg/kg iv 5 min prior"}, "[6]": {"conditions": "rats, pretreated Nisoxetine 2 mg/kg iv 5 min prior"}},
  "note": "Values joined by “and” are separate entries in the source; they are usually repeats but may differ in a detail not shown here. Equal values may be shown once.",
  "data": [
    {"molecule": "CN(C)Cc1ccccc1Sc1cc([18F])c(Cl)cc1N", "note": "[[^18F]ACF]", "values": [
      {"measurement": "Regional brain distribution: Cortex", "setting": "[1]; 120 min after iv injection", "result": "0.09 ± 0.01", "unit": "% dose/g"},
      {"measurement": "Regional brain distribution: Hippocampus", "setting": "[1]; 120 min after iv injection", "result": "0.14 ± 0.02", "unit": "% dose/g"},
      {"measurement": "Regional brain distribution: Hypothalamus", "setting": "[1]; 120 min after iv injection", "result": "0.17 ± 0.01", "unit": "% dose/g"},
      {"measurement": "Regional brain distribution: Remainder", "setting": "[1]; 120 min after iv injection", "result": "0.12 ± 0.01", "unit": "% dose/g"},
      {"measurement": "Regional brain distribution: Striatum", "setting": "[1]; 120 min after iv injection", "result": "0.15 ± 0.02", "unit": "% dose/g"},
      {"measurement": "Organ distribution: Blood", "setting": "[1]; 240 min after iv injection", "result": "2.33 ± 0.34", "unit": "% dose/organ"},
      {"measurement": "Organ distribution: Bone", "setting": "[1]; 240 min after iv injection", "result": "0.27 ± 0.07", "unit": "% dose/organ"},
      {"measurement": "Organ distribution: Brain", "setting": "[1]; 240 min after iv injection", "result": "0.06 ± 0.01", "unit": "% dose/organ"},
      {"measurement": "Organ distribution: Heart", "setting": "[1]; 240 min after iv injection", "result": "0.04 ± 0.01", "unit": "% dose/organ"},
      {"measurement": "Organ distribution: Kidney", "setting": "[1]; 240 min after iv injection", "result": "0.51 ± 0.07", "unit": "% dose/organ"},
      {"measurement": "Organ distribution: Liver", "setting": "[1]; 240 min after iv injection", "result": "3.55 ± 0.35", "unit": "% dose/organ"},
      {"measurement": "Organ distribution: Lung", "setting": "[1]; 240 min after iv injection", "result": "0.15 ± 0.02", "unit": "% dose/organ"},
      {"measurement": "Organ distribution: Muscle", "setting": "[1]; 240 min after iv injection", "result": "2.08 ± 0.05", "unit": "% dose/organ"},
      {"measurement": "Organ distribution: Skin", "setting": "[1]; 240 min after iv injection", "result": "1.53 ± 0.17", "unit": "% dose/organ"},
      {"measurement": "Organ distribution: Spleen", "setting": "[1]; 240 min after iv injection", "result": "0.03 ± 0.00", "unit": "% dose/organ"},
      {"measurement": "Ratio to Cerebellum: Cerebellum", "setting": "[1]; 240 min after iv injection", "result": "1.00 ± 0.00"},
      {"measurement": "Ratio to Cerebellum: Cortex", "setting": "[1]; 240 min after iv injection", "result": "1.52 ± 0.21"},
      {"measurement": "Ratio to Cerebellum: Hippocampus", "setting": "[1]; 240 min after iv injection", "result": "1.99 ± 0.23"},
      {"measurement": "Ratio to Cerebellum: Hypothalamus", "setting": "[1]; 240 min after iv injection", "result": "2.37 and 2.37 ± 0.23"},
      {"measurement": "Ratio to Cerebellum: Remainder", "setting": "[1]; 240 min after iv injection", "result": "1.58 ± 0.13"},
      {"measurement": "Ratio to Cerebellum: Striatum", "setting": "[1]; 240 min after iv injection", "result": "2.35 ± 0.05"},
      {"measurement": "Regional brain distribution: Cerebellum", "setting": "[1]; 240 min after iv injection", "result": "0.02 ± 0.00", "unit": "% dose/g"},
      {"measurement": "Regional brain distribution: Cortex", "setting": "[1]; 240 min after iv injection", "result": "0.03 ± 0.01", "unit": "% dose/g"},
      {"measurement": "Regional brain distribution: Hippocampus", "setting": "[1]; 240 min after iv injection", "result": "0.04 ± 0.01", "unit": "% dose/g"},
      {"measurement": "Regional brain distribution: Hypothalamus", "setting": "[1]; 240 min after iv injection", "result": "0.05 ± 0.00", "unit": "% dose/g"},
      {"measurement": "Regional brain distribution: Remainder", "setting": "[1]; 240 min after iv injection", "result": "0.03 ± 0.00", "unit": "% dose/g"},
      {"measurement": "Regional brain distribution: Striatum", "setting": "[1]; 240 min after iv injection", "result": "0.05 ± 0.00", "unit": "% dose/g"},
      {"measurement": "Time of peak specific uptake in the hypothalamus region", "setting": "[1]; after injection", "result": "60 to 120", "unit": "min"},
      {"measurement": "Initial brain uptake", "setting": "[1]; iv", "result": "1.71±0.45", "unit": "% dose/g"},
      {"measurement": "Specific retention in brain regions after pretreatment", "setting": "[2]; rats pretreated with methylphenidate", "result": "No significant differences"},
      {"measurement": "Specific retention in brain regions after pretreatment", "setting": "[2]; rats pretreated with nisoxetine", "result": "No significant differences"},
      {"measurement": "Specific retention in hypothalamus, striatum and hippocampus after pretreatment", "setting": "[2]; rats, 60 min, (+)McN5652 2 mg/Kg 5 min prior to tracer injection", "result": "significant decrease"},
      {"measurement": "Ratio to Cerebellum: Cerebellum", "setting": "[2]; [3]", "result": "1.00 ± 0.00"},
      {"measurement": "Ratio to Cerebellum: Cortex", "setting": "[2]; [3]", "result": "1.86 ± 0.05"},
      {"measurement": "Ratio to Cerebellum: Hippocampus", "setting": "[2]; [3]", "result": "2.52 ± 0.13"},
      {"measurement": "Ratio to Cerebellum: Hypothalamus", "setting": "[2]; [3]", "result": "2.96 ± 0.03"},
      {"measurement": "Ratio to Cerebellum: Remainder", "setting": "[2]; [3]", "result": "2.26 ± 0.03"},
      {"measurement": "Ratio to Cerebellum: Striatum", "setting": "[2]; [3]", "result": "2.63 ± 0.23"},
      {"measurement": "Tracer uptake: Blood", "setting": "[2]; [3]", "result": "0.26 ± 0.03"},
      {"measurement": "Tracer uptake: Cerebellum", "setting": "[2]; [3]", "result": "0.21 ± 0.02"},
      {"measurement": "Tracer uptake: Cortex", "setting": "[2]; [3]", "result": "0.39 ± 0.03"},
      {"measurement": "Tracer uptake: Hippocampus", "setting": "[2]; [3]", "result": "0.53 ± 0.03"},
      {"measurement": "Tracer uptake: Hypothalamus", "setting": "[2]; [3]", "result": "0.63 ± 0.05"},
      {"measurement": "Tracer uptake: Remainder", "setting": "[2]; [3]", "result": "0.48 ± 0.04"},
      {"measurement": "Tracer uptake: Striatum", "setting": "[2]; [3]", "result": "0.56 ± 0.09"},
      {"measurement": "Tracer uptake: Whole brain", "setting": "[2]; [3]", "result": "0.81 ± 0.09"},
      {"measurement": "Ratio to Cerebellum: Cerebellum", "setting": "[2]; [4]", "result": "1.00 ± 0.00"},
      {"measurement": "Ratio to Cerebellum: Cortex", "setting": "[2]; [4]", "result": "1.43 ± 0.27"},
      {"measurement": "Ratio to Cerebellum: Hippocampus", "setting": "[2]; [4]", "result": "1.93 ± 0.21"},
      {"measurement": "Ratio to Cerebellum: Hypothalamus", "setting": "[2]; [4]", "result": "1.36 ± 0.15"},
      {"measurement": "Ratio to Cerebellum: Remainder", "setting": "[2]; [4]", "result": "1.37 ± 0.16"},
      {"measurement": "Ratio to Cerebellum: Striatum", "setting": "[2]; [4]", "result": "1.48 ± 0.32"},
      {"measurement": "Tracer uptake: Blood", "setting": "[2]; [4]", "result": "0.26 ± 0.03"},
      {"measurement": "Tracer uptake: Cerebellum", "setting": "[2]; [4]", "result": "0.17 ± 0.03"},
      {"measurement": "Tracer uptake: Cortex", "setting": "[2]; [4]", "result": "0.24 ± 0.02"},
      {"measurement": "Tracer uptake: Hippocampus", "setting": "[2]; [4]", "result": "0.34 ± 0.06"},
      {"measurement": "Tracer uptake: Hypothalamus", "setting": "[2]; [4]", "result": "0.24 ± 0.03"},
      {"measurement": "Tracer uptake: Remainder", "setting": "[2]; [4]", "result": "0.23 ± 0.01"},
      {"measurement": "Tracer uptake: Striatum", "setting": "[2]; [4]", "result": "0.25 ± 0.03"},
      {"measurement": "Tracer uptake: Whole brain", "setting": "[2]; [4]", "result": "0.42 ± 0.02"},
      {"measurement": "Ratio to Cerebellum: Cerebellum", "setting": "[2]; [5]", "result": "1.00 ± 0.00"},
      {"measurement": "Ratio to Cerebellum: Cortex", "setting": "[2]; [5]", "result": "2.02 ± 0.21"},
      {"measurement": "Ratio to Cerebellum: Hippocampus", "setting": "[2]; [5]", "result": "2.50 ± 0.15"},
      {"measurement": "Ratio to Cerebellum: Hypothalamus", "setting": "[2]; [5]", "result": "3.05 ± 0.14"},
      {"measurement": "Ratio to Cerebellum: Remainder", "setting": "[2]; [5]", "result": "2.23 ± 0.05"},
      {"measurement": "Ratio to Cerebellum: Striatum", "setting": "[2]; [5]", "result": "2.75 ± 0.09"},
      {"measurement": "Tracer uptake: Blood", "setting": "[2]; [5]", "result": "0.28 ± 0.02"},
      {"measurement": "Tracer uptake: Cerebellum", "setting": "[2]; [5]", "result": "0.17 ± 0.02"},
      {"measurement": "Tracer uptake: Cortex", "setting": "[2]; [5]", "result": "0.35 ± 0.03"},
      {"measurement": "Tracer uptake: Hippocampus", "setting": "[2]; [5]", "result": "0.43 ± 0.03"},
      {"measurement": "Tracer uptake: Hypothalamus", "setting": "[2]; [5]", "result": "0.52 ± 0.07"},
      {"measurement": "Tracer uptake: Remainder", "setting": "[2]; [5]", "result": "0.38 ± 0.05"},
      {"measurement": "Tracer uptake: Striatum", "setting": "[2]; [5]", "result": "0.47 ± 0.06"},
      {"measurement": "Tracer uptake: Whole brain", "setting": "[2]; [5]", "result": "0.67 ± 0.04"},
      {"measurement": "Ratio to Cerebellum: Cerebellum", "setting": "[2]; [6]", "result": "1.00 ± 0.00"},
      {"measurement": "Ratio to Cerebellum: Cortex", "setting": "[2]; [6]", "result": "1.94 ± 0.16"},
      {"measurement": "Ratio to Cerebellum: Hippocampus", "setting": "[2]; [6]", "result": "2.44 ± 0.11"},
      {"measurement": "Ratio to Cerebellum: Hypothalamus", "setting": "[2]; [6]", "result": "2.89 ± 0.11"},
      {"measurement": "Ratio to Cerebellum: Remainder", "setting": "[2]; [6]", "result": "2.17 ± 0.04"},
      {"measurement": "Ratio to Cerebellum: Striatum", "setting": "[2]; [6]", "result": "2.50 ± 0.12"},
      {"measurement": "Tracer uptake: Blood", "setting": "[2]; [6]", "result": "0.26 ± 0.01"},
      {"measurement": "Tracer uptake: Cerebellum", "setting": "[2]; [6]", "result": "0.19 ± 0.01"},
      {"measurement": "Tracer uptake: Cortex", "setting": "[2]; [6]", "result": "0.37 ± 0.04"},
      {"measurement": "Tracer uptake: Hippocampus", "setting": "[2]; [6]", "result": "0.46 ± 0.02"},
      {"measurement": "Tracer uptake: Hypothalamus", "setting": "[2]; [6]", "result": "0.55 ± 0.02"},
      {"measurement": "Tracer uptake: Remainder", "setting": "[2]; [6]", "result": "0.41 ± 0.01"},
      {"measurement": "Tracer uptake: Striatum", "setting": "[2]; [6]", "result": "0.47 ± 0.03"},
      {"measurement": "Tracer uptake: Whole brain", "setting": "[2]; [6]", "result": "0.74 ± 0.04"}
    ]}
  ]
}
